Experimental data taken from the supplement of paper PMC10307832.

Columns and labels:
Assay in all cases: relative viability (nuclei count vs DMSO), 5 days (fraction); higher = more cells survive
Midostaurin + Vorinostat = compound: CO[C@@H]1[C@H](N(C)C(=O)c2ccccc2)C[C@H]2O[C@]1(C)n1c3ccccc3c3c4c(c5c6ccccc6n2c5c31)C(=O)NC4 [Midostaurin] + O=C(CCCCCCC(=O)Nc1ccccc1)NO [Vorinostat] (partner 1 µM)
How it was run: (§1)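 Lung cancer cell lines in 1536-well plates were dosed by pin tool the day after seeding, either with one drug alone or with a fixed anchor-drug dose plus five library-drug doses (not always all listed) in √10 steps. After 5 days, cells were fixed and their nuclei stained in one step (final 0.05% Triton X-100, 1% formaldehyde, 1 ug/ml Hoechst), then counted on 4× images. Relative viability is the nuclei count in treated wells divided by that in vehicle wells. Values are medians of duplicate plates.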

Midostaurin + Luminespib = compound: CO[C@@H]1[C@H](N(C)C(=O)c2ccccc2)C[C@H]2O[C@]1(C)n1c3ccccc3c3c4c(c5c6ccccc6n2c5c31)C(=O)NC4 [Midostaurin] + CCNC(=O)c1noc(-c2cc(C(C)C)c(O)cc2O)c1-c1ccc(CN2CCOCC2)cc1 [Luminespib] (partner 0.01 µM)
How it was run: as §1

Midostaurin + AZD7762 = compound: CO[C@@H]1[C@H](N(C)C(=O)c2ccccc2)C[C@H]2O[C@]1(C)n1c3ccccc3c3c4c(c5c6ccccc6n2c5c31)C(=O)NC4 [Midostaurin] + NC(=O)Nc1cc(-c2cccc(F)c2)sc1C(=O)N[C@H]1CCCNC1 [AZD7762] (partner 0.2 µM)
How it was run: as §1

Midostaurin + Bortezomib = compound: CO[C@@H]1[C@H](N(C)C(=O)c2ccccc2)C[C@H]2O[C@]1(C)n1c3ccccc3c3c4c(c5c6ccccc6n2c5c31)C(=O)NC4 [Midostaurin] + CC(C)C[C@H](NC(=O)[C@H](Cc1ccccc1)NC(=O)c1cnccn1)B(O)O [Bortezomib] (partner 0.002 µM)
How it was run: as §1

[1] = compound: COc1cc(-c2nn([C@H]3CC[C@H](N4CCN(C(C)=O)CC4)CC3)c3ncnc(N)c23)ccc1NC(=O)c1cc2ccccc2n1C + NC(=O)Nc1cc(-c2cccc(F)c2)sc1C(=O)N[C@H]1CCCNC1 [AZD7762] (partner 0.2 µM)
How it was run: as §1

| Cell Line | relative viability (Midostaurin + Vorinostat; first compound 0.01 µM) | relative viability (Midostaurin + Vorinostat; first compound 0.03162 µM) | relative viability (Midostaurin + Vorinostat; first compound 0.1 µM) | relative viability (Midostaurin + Vorinostat; first compound 0.3162 µM) | relative viability (Midostaurin + Luminespib; first compound 0.01 µM) | relative viability (Midostaurin + Luminespib; first compound 0.03162 µM) | relative viability (Midostaurin + Luminespib; first compound 0.1 µM) | relative viability (Midostaurin + Luminespib; first compound 0.3162 µM) | relative viability (Midostaurin + AZD7762; first compound 0.01 µM) | relative viability (Midostaurin + AZD7762; first compound 0.03162 µM) | relative viability (Midostaurin + AZD7762; first compound 0.1 µM) | relative viability (Midostaurin + AZD7762; first compound 0.3162 µM) | relative viability (Midostaurin + Bortezomib; first compound 0.01 µM) | relative viability (Midostaurin + Bortezomib; first compound 0.03162 µM) | relative viability (Midostaurin + Bortezomib; first compound 0.1 µM) | relative viability (Midostaurin + Bortezomib; first compound 0.3162 µM) | relative viability ([1]; first compound 0.0128 µM) | relative viability ([1]; first compound 0.04048 µM) | relative viability ([1]; first compound 0.128 µM) | relative viability ([1]; first compound 1.28 µM) |
| --- | --- | --- | --- | --- | --- | --- | --- | --- | --- | --- | --- | --- | --- | --- | --- | --- | --- | --- | --- | --- |
| EMC-BAC-2 | 0.415 | 0.437 | 0.407 | 0.476 | 1.11 | 1.05 | 0.898 | 1.16 | 1.08 | 1.03 | 1.04 | 1.08 | 1.08 | 0.998 | 1.04 | 1.1 | 1.13 | 1.28 | 1.09 | 1.09 |
| NCI-H2405 | 1.05 | 1.24 | 1.01 | 1.02 | 0.729 | 0.704 | 0.64 | 0.45 | 0.682 | 0.804 | 0.847 | 0.75 | 1.02 | 0.985 | 0.979 | 1.01 | 0.707 | 0.615 | 0.573 | 0.349 |
| EPLC-272H | 0.47 | 0.436 | 0.426 | 0.393 | 0.323 |  | 0.333 | 0.48 | 0.208 | 0.287 | 0.259 | 0.165 | 0.921 | 0.927 | 1.05 | 1.11 | 0.253 | 0.207 | 0.215 | 0.142 |
| NCI-H1915 | 0.447 | 0.487 | 0.576 | 0.513 | 0.711 | 0.75 | 0.613 | 0.797 | 0.654 | 0.679 | 0.671 | 0.709 | 0.936 | 1 | 0.968 | 0.993 | 0.714 | 0.665 | 0.69 | 0.448 |
| NCI-H596 | 0.554 | 0.645 | 0.625 | 0.877 | 1.13 | 1.17 | 0.869 | 1.18 | 1.25 | 1.13 | 1.1 | 1.05 | 0.902 | 1.12 | 1.1 | 1.07 | 1.55 | 1.15 | 1.09 | 0.851 |
| NCI-H322M | 0.877 | 0.849 | 0.994 | 1.28 | 0.826 | 0.829 | 0.969 | 1.23 | 0.504 | 0.703 | 0.533 | 0.582 | 1.37 | 1.27 | 1.17 | 1.34 | 0.496 | 0.599 | 0.536 | 0.444 |
| NCI-H647 | 0.591 | 0.988 | 0.536 | 0.275 | 0.191 | 0.181 | 0.141 | 0.264 | 0.576 | 0.392 | 0.41 | 0.324 | 0.953 | 1.07 | 0.876 | 0.765 | 0.503 | 0.602 | 0.403 | 0.367 |
| NCI-H2085 | 0.79 | 0.783 | 0.822 | 0.637 | 0.42 | 0.464 | 0.371 | 0.42 | 0.938 | 0.998 | 0.93 | 0.623 | 0.968 | 0.963 | 1.08 | 0.946 | 1.08 | 0.929 | 0.854 | 0.427 |
| NCI-H727 | 1.4 | 1.11 | 1.16 | 1.26 | 0.343 | 0.335 | 0.264 | 0.902 | 0.616 | 0.696 | 0.947 | 0.639 | 0.906 | 0.81 | 0.771 | 0.795 | 0.562 |  | 0.716 | 0.575 |
| NCI-H441 | 0.846 | 0.801 | 0.801 | 0.585 | 0.379 | 0.358 | 0.429 | 0.351 | 1.15 | 0.888 | 0.984 | 1.1 | 0.477 | 0.647 | 0.392 | 0.442 | 1.21 | 1.01 | 1.12 | 0.717 |
| LOU-NH91 | 0.933 | 0.882 | 0.947 | 0.983 | 0.328 | 0.347 | 0.394 | 0.309 | 0.791 | 0.724 | 0.778 | 0.809 | 0.506 | 0.48 | 0.529 | 0.528 | 0.813 | 0.796 | 0.732 | 0.658 |
| NCI-H3122 | 0.963 | 0.904 | 0.905 | 0.89 | 0.093 | 0.104 | 0.0868 | 0.0981 | 0.981 | 0.908 | 0.962 | 1.06 | 0.991 | 0.968 | 1.04 | 1.02 | 1.06 |  | 0.958 | 0.845 |
| NCI-H460 | 0.697 | 0.578 | 0.65 | 0.115 | 0.0367 | 0.0356 | 0.0302 | 0.0369 | 0.678 | 0.626 | 0.635 | 0.704 | 1.19 | 1.19 | 1.01 | 1.1 | 0.618 | 0.73 | 0.603 | 0.579 |
| NCI-H650 | 0.431 | 0.474 | 0.875 | 0.412 | 0.76 | 0.826 | 0.8 | 0.771 | 1.01 | 1.04 | 0.942 | 1.11 | 0.635 | 0.783 | 0.734 | 0.625 | 1.13 | 1.02 | 0.975 | 0.935 |
| NCI-H1734 | 0.796 | 0.818 | 0.855 | 0.467 | 0.224 | 0.192 | 0.178 | 0.187 | 0.498 | 0.537 | 0.543 | 0.39 | 0.868 | 0.886 | 0.915 | 0.786 | 0.614 | 0.519 | 0.578 | 0.508 |
